Data from PubChem BioAssay (NCI).
Values joined by “and” are separate entries in the source; they are usually repeats but may differ in a detail not shown here. Equal entries are not always repeated.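 A five-concentration, 48-hour dose response in 96-well plates underlies each endpoint, interpolated linearly between surrounding concentrations. GI50 is the concentration that inhibits growth by half. At the TGI there is no net growth.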

Legend:
Test in all cases: NCI tumour cell line growth inhibition, 48 h
A549 NSCLC = tested on: A549 NSCLC
SF-295 CNS = tested on: SF-295 CNS
UACC-257 melanoma = tested on: UACC-257 melanoma
SK-MEL-2 melanoma = tested on: SK-MEL-2 melanoma
MOLT-4 leukemia = tested on: MOLT-4 leukemia
SK-MEL-5 melanoma = tested on: SK-MEL-5 melanoma
MALME-3M melanoma = tested on: MALME-3M melanoma
HCC-2998 colon = tested on: HCC-2998 colon
CCRF-CEM leukemia = tested on: CCRF-CEM leukemia
COLO 205 colon = tested on: COLO 205 colon

Row | SMILES | GI50 (A549 NSCLC) | TGI (A549 NSCLC) | GI50 (SF-295 CNS) | TGI (SF-295 CNS) | GI50 (UACC-257 melanoma) | TGI (UACC-257 melanoma) | GI50 (SK-MEL-2 melanoma) | TGI (SK-MEL-2 melanoma) | GI50 (MOLT-4 leukemia) | TGI (MOLT-4 leukemia) | GI50 (SK-MEL-5 melanoma) | TGI (SK-MEL-5 melanoma) | GI50 (MALME-3M melanoma) | TGI (MALME-3M melanoma) | GI50 (HCC-2998 colon) | TGI (HCC-2998 colon) | GI50 (CCRF-CEM leukemia) | TGI (CCRF-CEM leukemia) | GI50 (COLO 205 colon) | TGI (COLO 205 colon)
1 | O=S(=O)(Nc1ccc(-c2nc(-c3cccc(OCCN4CCOCC4)c3)c(-c3ccnc(Br)c3)[nH]2)cc1)c1ccccc1 | 3.35 µM | > 100 µM | 1.72 µM | 4.1 µM | 3.03 µM | 12 µM | 2.59 µM | 6.87 µM | 2.59 µM | > 100 µM | 2.12 µM | 4.6 µM | 2.2 µM | 56.9 µM | 1.85 µM | 3.71 µM | 2.89 µM | > 100 µM | 3.54 µM | > 100 µM
2 | Cn1ncc2c(Nc3ccc(Br)cc3)nc(Nc3ccc(Br)cc3)nc21 | 4.46 µM | 30.8 µM | 1.82 µM | 4.03 µM | 5.32 µM | 18.8 µM | 2.89 µM | 8.56 µM | 0.346 µM | 5.23 µM | 2.2 µM | 7.52 µM | 3.32 µM | 14.7 µM | 1.94 µM | 3.98 µM | 3.23 µM | 22 µM | 1.65 µM | 3.2 µM
3 | CS(=O)(=O)c1nccc(-c2c(-c3cccc(OCc4ccc(F)cc4)c3)nc3sccn23)n1 | > 81.8 µM | > 100 µM | > 100 µM | > 100 µM | 5 µM | 14.8 µM | > 100 µM | > 100 µM | 2.64 µM | > 100 µM | 2.51 µM | > 24.2 µM | 67.3 µM | > 100 µM | 2.28 µM | 5.54 µM | 8.73 µM | > 100 µM | 45 µM | > 100 µM
4 | Cc1c(Cl)cccc1NC(=O)CC1Sc2ccccc2NC1=O (stereo unspecified) |  | 54.2 µM and > 100 µM |  | 58.9 µM and > 100 µM | 38.7 µM and 5.35 µM | > 94.7 µM and 37.8 µM |  | 59.6 µM and 41.9 µM |  | > 100 µM |  | 67.7 µM and > 100 µM |  | 50.7 µM and 47.2 µM |  | 52.7 µM and 34.9 µM |  | > 100 µM |  | > 100 µM
5 | COc1ccc(CNc2cc(OC)cc(OC)c2)cc1 |  | > 100 µM | > 100 µM and 38.2 µM | > 100 µM |  | > 100 µM |  | > 100 µM |  | > 100 µM |  | > 100 µM |  | > 100 µM |  | > 100 µM | 78.7 µM and 28.6 µM | > 100 µM |  | > 100 µM
6 | O=S(=O)(c1cccc(C(F)(F)F)c1)N1c2ccccc2-n2cccc2C1c1cccnc1 (stereo unspecified) |  | > 56.4 µM |  | > 100 µM |  | > 54.6 µM |  | > 52.2 µM |  | > 56.6 µM |  | > 43 µM |  | > 54.5 µM |  | 43.7 µM |  | > 51.6 µM |  | > 54.6 µM
7 | CN(C)CCNC(=O)c1ccc2ccc3cccnc3c2n1 |  | > 52.9 µM |  | 88.2 µM |  | 35.4 µM |  | 29.3 µM |  | 32.3 µM |  | 28.3 µM |  | 28.7 µM |  | 25.4 µM |  | > 100 µM |  | 23.9 µM
8 | CCCC[C@@H]1NC(=O)[C@H](CCCCN)NC(=O)[C@H](CCCNC(=N)N)NC(=O)[C@H](CC(C)C)NC(=O)[C@@H](NC(=O)[C@H](Cc2cccc(Cl)c2)NC(=O)[C@@H]2CCCN2C(=O)[C@@H](NC(C)=O)C(C)C)CCSSC[C@@H](C(=O)N[C@@H](CCCCN)C(=O)N2CCC[C@H]2C(=O)N2CCC[C@H]2C(=O)N[C@@H](CCC(=O)O)C(N)=O)NC(=O)[C@H](Cc2ccccc2)NC(=O)[C@H](CO)NC(=O)[C@H](C)NC(=O)[C@@H]2CCCN2C1=O | > 50 µM | > 50 µM | > 50 µM | > 50 µM | > 50 µM | > 50 µM | > 50 µM | > 50 µM | > 50 µM | > 50 µM | > 50 µM | > 50 µM | > 50 µM | > 50 µM | > 50 µM | > 50 µM | > 50 µM | > 50 µM | > 50 µM | > 50 µM
9 | C[C@@H]1O[C@@H](O[C@H]2C[C@@H](O)[C@]3(CO)C4C(CC[C@]3(O)C2)[C@@]2(O)CC[C@H](C3=CC(=O)OC3)[C@@]2(C)C[C@H]4O)[C@H](O)[C@H](O)[C@H]1O (stereo partly specified) | 0.00907 µM | 0.0172 µM | 0.0196 µM | 0.098 µM | 0.0626 µM | 0.129 µM | 0.0655 µM | 0.17 µM | 0.0128 µM | 0.0314 µM | 0.016 µM | 0.0533 µM | 0.0197 µM | 0.0828 µM | 0.088 µM | 0.238 µM | 0.0168 µM | 0.0808 µM | 0.0747 µM | 0.151 µM
10 | COc1ccc(CC(=O)c2cc(OC)c(OC)cc2C)cc1OC |  | > 100 µM |  | > 100 µM |  | 75.8 µM |  | > 100 µM |  | > 100 µM |  | > 100 µM |  | > 100 µM |  | > 100 µM |  | > 100 µM |  | > 100 µM
11 | N#C/C(=C\c1ccc(CP(=O)(O)O)cc1)C(N)=O |  | > 100 µM |  | > 100 µM |  | > 100 µM |  | > 100 µM |  | > 100 µM |  | > 100 µM |  | > 100 µM |  | > 100 µM |  | > 100 µM |  | > 100 µM
12 | COC1/C=C/O[C@@]2(C)Oc3c(C)c(O)c4c(O)c(cc(O)c4c3C2=O)NC(=O)/C(C)=C\C=C\[C@H](C)C(O)[C@@H](C)[C@@H](O)[C@@H](C)[C@H](OC(C)=O)[C@@H]1C (stereo partly specified) | 16.8 µM and 58.5 µM | 31.3 µM and 143 µM |  | 196 µM | 17.5 µM | 32.7 µM and 32.9 µM |  | 30 µM and 45.2 µM | 7.42 µM | 36.3 µM and 62.5 µM | 25.6 µM | 67.6 µM and 88.1 µM | 12.8 µM | 25.9 µM and 77.9 µM | 15.8 µM | 29.2 µM and 49.2 µM | 0.504 µM | 4.07 µM and 32.6 µM | 4.25 µM | 15.5 µM and 10.6 µM
13 | CCCCCCC1CCC2CCCC(C)N12 (stereo unspecified) |  | > 100 µM |  | > 100 µM |  | > 100 µM |  | 69.2 µM |  | 47.1 µM |  | > 100 µM |  | > 10 µM |  | 45.6 µM |  | 62 µM |  | 34.1 µM
